Results taken from US8552163B2, “Liver-targeting agents and their synthesis” (Johns Hopkins University, priority 2009, dated 2013).

Tests used:
ASGPR = target: T1, ASGPR (Mus musculus, UniProt P24721+P34927); assay: Competitive binding assay with Eu-ASOR on murine hepatocyte (time-resolved fluorometry); conditions: for binding to ASGPR compared with that of YEE or YDD: relative to YEE or YDD, from the IC50 data of Table 1
T1 construct: host or cells: murine hepatocytes (purchased, plated in 24-well plates)
T1 sequence (P34927 1-284): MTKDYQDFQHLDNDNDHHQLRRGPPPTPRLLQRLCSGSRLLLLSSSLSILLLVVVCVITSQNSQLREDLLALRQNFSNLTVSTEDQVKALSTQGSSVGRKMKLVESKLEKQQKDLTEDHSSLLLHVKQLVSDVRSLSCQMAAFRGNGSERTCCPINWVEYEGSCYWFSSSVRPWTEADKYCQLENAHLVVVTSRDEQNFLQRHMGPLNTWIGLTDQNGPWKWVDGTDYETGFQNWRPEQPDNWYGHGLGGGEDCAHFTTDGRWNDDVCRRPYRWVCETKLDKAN
T1 sequence (P24721 1-301): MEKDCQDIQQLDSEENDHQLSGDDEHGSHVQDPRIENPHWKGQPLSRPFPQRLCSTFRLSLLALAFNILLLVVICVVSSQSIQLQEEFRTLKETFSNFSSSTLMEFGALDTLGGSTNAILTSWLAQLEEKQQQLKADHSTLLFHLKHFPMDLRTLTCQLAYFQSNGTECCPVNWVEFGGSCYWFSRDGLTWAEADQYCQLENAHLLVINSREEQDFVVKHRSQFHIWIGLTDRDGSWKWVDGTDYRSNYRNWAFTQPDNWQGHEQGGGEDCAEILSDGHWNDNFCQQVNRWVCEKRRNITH
Description: With Eu-asialo-orosomucoid (Eu-ASOR) as a reference material, the binding affinity of the multivalent glyco-ligands (DCM-Lys(ah-GalNAc)3, DCM-Lys(GahGalNAc)3, DCM-Lys(ahLac)3, AHA-Asp[DCM-Lys(ahLac)3]2) and murine hepatocyte can be determined by competitive assay to obtain IC50 (concentration of 50% inhibition), and the lower the IC50 is, the higher the binding affinity. The murine hepatocyte (Lonza Biotechnology Company, Walkersville, Md.) is plated in a 24-well plate in advance, and the reaction occurs in each well, into which (i) Eu-ASOR 10 nM (ii) hepatocyte basic medium with 5 mM calcium chloride, and (iii) five different concentrations of multivalent ligands of 1 μM-0.8 nM are added. After culturing with shaking for 1 hr in the cold, the unbound ligands are removed by washing with the hepatocyte basic medium containing calcium chloride. Time-resolved fluorometry (TRF) is performed, using an enhancement solution (15 μM β-naphthoyl trifluoroacetone, 50 μM tri-n-octyl-phosphine oxide, 0.1% triton X-100 in 0.1 M acetic acid, titrated with potassium hydrogen phthalate to pH 3.2). The enhancement solution reacts with Eu^3+ to form an Eu chelate, which can emit at 615 nm when excited at 340 nm. With the logarithm of the concentration of saccharide chain peptide as X axis, the emitted fluorescence value as Y axis, the fluorescence value without adding glycopeptide being set as 100%, the IC50 values of each ligand can be calculated accordingly.

[1] = as first reported by Lee (1983); cited from earlier work

For `NCCCCCC(=O)NC(CC(=O)NCCCCC(C(=O)NCCCCCCOC1OC(CO)C(OC2OC(CO)C(O)C(O)C2O)C(O)C1O)N(CC(=O)NCCCCCCOC1OC(CO)C(OC2OC(CO)C(O)C(O)C2O)C(O)C1O)CC(=O)NCCCCCCOC1OC(CO)C(OC2OC(CO)C(O)C(O)C2O)C(O)C1O)C(=O)NCCCCC(C(=O)NCCCCCCOC1OC(CO)C(OC2OC(CO)C(O)C(O)C2O)C(O)C1O)N(CC(=O)NCCCCCCOC1OC(CO)C(OC2OC(CO)C(O)C(O)C2O)C(O)C1O)CC(=O)NCCCCCCOC1OC(CO)C(OC2OC(CO)C(O)C(O)C2O)C(O)C1O` (stereo not shown) [AHA-Asp[DCM-Lys(ahLac)3]2], the “binding to ASGPR compared with that of YEE or YDD” value (ASGPR) was “the same binding strength as that of YEE or YDD”.
With `CC(=O)N[C@H]1[C@H](OCCCCCCNC(=O)CNC(=O)CN(CC(=O)NCC(=O)NCCCCCCO[C@@H]2O[C@H](CO)[C@H](O)[C@H](O)[C@H]2NC(C)=O)[C@@H](CCCCN)C(=O)NCC(=O)NCCCCCCO[C@@H]2O[C@H](CO)[C@H](O)[C@H](O)[C@H]2NC(C)=O)O[C@H](CO)[C@H](O)[C@@H]1O` [DCM-Lys(GahGalNAc)3] the IC50 (ASGPR; competition with 10 nM Eu-ASOR, murine hepatocyte, 5 mM calcium chloride, 1 hr in the cold, read-out: IC50 (concentration of 50% inhibition), binding strength of saccharide chains and murine hepatocyte) was 1 nM and the “binding to ASGPR compared with that of YEE or YDD” value (ASGPR) was 10 times.
In the case of `CC(=O)N[C@H]1[C@H](OCCCCCCNC(=O)CC[C@H](NC(=O)CC[C@H](NC(=O)[C@@H](N)Cc2ccc(O)cc2)C(=O)NCCCCCCO[C@@H]2O[C@H](CO)[C@H](O)[C@H](O)[C@H]2NC(C)=O)C(=O)NCCCCCCO[C@@H]2O[C@H](CO)[C@H](O)[C@H](O)[C@H]2NC(C)=O)O[C@H](CO)[C@H](O)[C@@H]1O` [YEE(ahGalNAc)3], the solubility [1] is listed as “poor solubility”.
